From patent US20250154212A1, “METHOD OF DISRUPTING MEMORY AND LIPOPEPTIDE FOR USE IN SUCH METHOD” (The Research Foundation for The State University of New York, priority 2023, published 2025)
Entries after “also recorded” stand apart in the source; their conditions may differ. Where no end group is shown, it is not given here. The star is where a group is joined. Myristoyl = CCCCCCCCCCCCCC(=O)*

Tests used:
[1] = test system: late-LTP in hippocampal slices of PKMζ-null mice; assay: Late-LTP recording (fEPSP) in hippocampal slices of PKMζ-null mice; format: cell-based, mouse; conditions: for effect on late-LTP, tetanized pathway: 10 μM applied 3 h post-tetanization; for effect on baseline synaptic transmission, untetanized pathway: 10 μM in bath
Procedure: Acute mouse hippocampal slices (450 μm) were prepared as previously described (17, 73). Hippocampi from 2-6-month-old male C57/B6 or PKM ζ-null mice as previously described (17) were dissected, bathed in ice-cold dissection buffer, and sliced with a McIlwain tissue slicer in a cold room (4° C.). The dissection buffer contained (in mM): 125 NaCl, 2.5 KCl, 1.25 NaH2PO4, 26 NaHCO3, 11 glucose, 10 MgCl2, and 0.5 CaCl2), and was bubbled with 95% O2/5% CO2 to maintain pH at 7.4. After dissection the slices were immediately transferred into an Oslo-type interface recording chamber (31.5±1° C.) (73). The recording superfusate consisted of (in mM): 118 NaCl, 3.5 KCl, 2.5 CaCl2), 1.3 MgSO4, 1.25 NaH2PO4, 24 NaHCO3, and 15 glucose, bubbled with 95% O2/5% CO2, with a flow rate of 0.5 ml/min. In a subset of experiments a custom-made recirculation system employing piezoelectric pumps was used for recycling the superfusate (Bartels Mikrotechnik GmbH, Dortmund, Germany) (73).
Field EPSPs were recorded with a glass extracellular recording electrode (2-5 M (2) placed in the CA1 st. radiatum, and concentric bipolar stimulating electrodes (CBBRE75 and 30200; FHC, Bowdoin, ME) were placed on either side within CA3 or CA1. Test stimulation rate was once every 30 sec, alternating every 15 sec between stimulating electrodes. Based upon a pre-established exclusion criterion, a slice was not used if fEPSP spike threshold was <2 mV on initial input-output analysis. Pathway independence was confirmed by the absence of paired-pulse facilitation between the two pathways. A single stimulating electrode was used for PLA/immunocytochemistry with a test stimulation rate of once every 30 sec. The high-frequency stimulation, optimized to produce a relatively rapid onset of protein synthesis-dependent late-LTP (74), consisted of two 100 Hz-1 s tetanic trains, at 25% of spike threshold, spaced 20 sec apart. The maximum slope of the rise of the fEPSP was analyzed on a PC using the WinLTP data acquisition program (75).
Replicates are biological because there is only one measurement for each sample. Drug/vehicle comparisons were performed blindly. Sample sizes vary for the different experimental approaches (biochemistry, slice physiology, and behavior) and were established by power analyses based on effect size estimates from published work or preliminary experiments. The observed effect sizes for binary comparisons are reported as Cohen's d and as η^2p for ANOVA effects. Multi-factor comparisons were performed using ANOVA with repeated measures, as appropriate. Two-population Student's/tests were performed to compare protein immunofluorescence intensity between control and potentiated hippocampal slices. For LTP experiments, the responses were first normalized to the mean of the 30 min period prior to tetanization (or equivalent in control pathways), and then the means over 5 min periods were used for statistical comparisons (e.g., pre-tetanization, beginning and end of drug application). Paired Student's t tests were used to compare the change in the potentiated response at time points at the beginning and end of drug application. The degrees of freedom for the critical t values of the/tests and the F values of the ANOVAs are reported as subscripts. Post-hoc multiple comparisons were performed by Newman-Keuls tests as appropriate. Statistical significance was accepted at P<0.05 or appropriate Bonferroni correction for multiple comparisons. […]

spatial long-term memory = assay: Active place avoidance, intrahippocampal injection, wild-type mice; format: in vivo, mouse; conditions: for spatial memory retention (time to first enter shock zone), 3-day memory: 5 nmol in 0.5 μl per hippocampus 1 day after conditioning; for learning and retention of a new memory (place avoidance in Context B): conditioned 2 days after injection, retention 3 days later
Procedure: For spatial long-term memory experiments, we adapted the approach used in Garcia-Osta et al. (82). Mice were ˜12-weeks old at surgery. Briefly, to implant the injection cannula hardware, mice were anesthetized by an intraperitoneal (i.p.) injection of a mixture of dexmedetomidine ([…] body weight) and ketamine (28 mg/kg body weight), and mounted in a Kopf stereotaxic frame (Tujunga, CA). The tips of guide cannula (Plastics One, Roanoke, VA; Part Numbers: C235GS-5-2.0) were targeted above the injection target in the dorsal hippocampus (AP-1.94 mm; ML±1.00 mm; DV-0.90 mm). The other injection hardware (Part Numbers: C235DCs-5, 303DC/1; cannula dummy, cannula cap, respectively) was assembled, and antisedan (0.65 mg/kg body weight i.p.) was administered to reverse the sedation at the end of surgery.
Three to four weeks after surgery, the animals received active place avoidance training. Before testing the effect of the drug injection on place avoidance, the animals received a bilateral injection of vehicle (PBS [pH 7.4] 0.5 μl/side) and were left in the home cage to habituate to the procedure. Depending on the experimental design, injection of vehicle or drug, either ζ-stat or K-ZAP (5 nmol in 0.5 μl PBS/side), is 1 day or 4 weeks after the training session. During the injection, the animals were restrained, the cannula cap and dummy removed, and the injection needle (Plastics One, Roanoke, VA; Part Numbers: C235IS-5) inserted into the guide cannula so that it protruded from the end of the guide by 0.5 mm. The other end of the needle was connected to a 10 μl Hamilton syringe via Tygon tubing. The drug or vehicle was infused for 1 min, and after the infusion the needle was left in place for 5 min before removal. The animals were then returned to their home cages until the memory retention tests that were conducted 2 days later.
Active place avoidance was conducted with a commercial computer-controlled system (Bio-Signal Group, Acton, MA). The mouse was placed on a 40-cm diameter circular arena rotating at 1 rpm. The specialized software, Tracker (Bio-Signal Group, Acton, MA), was used to detect the animal's position 30 times per second by video tracking from an overhead camera. A clear wall made from polyethylene terephthalate glycol-modified (PET-G) was placed on the arena to prevent the animal from jumping off the elevated arena surface. A 5-pole shock grid was placed on the rotating arena, and the shock was scrambled across the 5-poles when the mouse entered the shock zone. All experiments used the “Room+Arena−” task variant that challenges the mouse on the rotating arena to avoid a shock zone that was a stationary 60° sector (7). Every 33 ms, the software determined the mouse's position, whether it was in the shock zone, and whether to deliver shock. After the animal enters the shock zone for 500 ms, a constant current foot-shock (60 Hz, 500 ms) was delivered and repeated with the interval of 1500 ms until the mouse left the shock zone. The shock intensity was 0.2 or 0.3 mA, which was the minimum amplitude to elicit flinch or escape responses. The animal was forced to actively avoid the designated shock zone because the arena rotation periodically transported it into the shock area.
The tracked animal positions with timestamps were analyzed offline (TrackAnalysis, Bio-Signal Group, Acton, MA) to extract several end-point measures. The time to first enter the shock zone estimates ability to avoid shock and was taken as an index of between-session memory. The number of entrances within one trial was taken as another index to examine the animal learning curve throughout all training trials. A pretraining habituation period on the apparatus equivalent in time to a training session, but without shock, was provided.
The training schedule was as follows: 2 h after a 30-min pretraining habituation, the animals received three 30-min training trials, with an intertrial interval of 2 h. […]

Compound	effect on late-LTP, tetanized pathway [1]	effect on late-LTP, tetanized pathway ([1]; listed as z-stat)	effect on baseline synaptic transmission, untetanized pathway [1]	spatial memory retention (time to first enter shock zone), 3-day memory (spatial long-term memory; tested 2 days post-injection)	spatial memory retention (time to first enter shock zone), 3-day memory (spatial long-term memory; tested 2 days post-injection, listed as z-stat)	learning and retention of a new memory (place avoidance in Context B) (spatial long-term memory)	learning and retention of a new memory (place avoidance in Context B) (spatial long-term memory; listed as z-stat)	remote spatial memory retention, 30-day memory (spatial long-term memory; 5 nmol in 0.5 μl/side injected 4 weeks after training, tested 2 days post-injection)
O=S(=O)(O)c1cc(O)c2c(S(=O)(=O)O)cc(S(=O)(=O)O)cc2c1 [ζ-stat, 1-naphthol-3,6,8-trisulphonic acid]	has no effect on late-LTP maintenance	has no effect on late-LTP	has no effect on late-LTP or baseline synaptic transmission	persistent loss of retention	disrupts spatial memory retention; also recorded: disrupt memory retention for the established memory	learn to avoid and remember a new second location as well as the mice that had received only vehicle	do not disrupt learning or retention of a new memory	
myr-N-FVRNSLERRSVRMKRPS-C (Myristoyl-FVRNSLERRSVRMKRPS) [K-ZAP]	has no effect on late-LTP maintenance; also recorded: has no effect on PKMz-null-LTP		no effect	disrupts established spatial long-term memory retention; also recorded: loss of memory retention				disrupts remote spatial memory; also recorded: loss of memory retention 30 days post-training
